Measurements taken from patent publication US20240181087A1, “COMPOSITION FOR CONTRAST IMAGING OF CANCER” (ASTELLAS PHARMA INC., priority 2021, published 2024).

How the values were obtained:
[1] = tested on: mouse bladder cancer cell MB49; assay: near-infrared fluorescence observation of bladder after intravesical administration via the urethra, MB49 bladder cancer mouse model; format: in vivo; conditions: into bladder via urethra, after 30 minutes washed with saline five times
Procedure: Two bladder cancer mouse models (weight: about 20 g), having mouse bladder cancer cell MB49 transplanted in the bladder mucosa, and then grown for 3 weeks or 4 weeks, were used. To the bladder of each of the mice, 0.2 mL of a saline containing the compound III (concentration of the compound III: 0.075 mg/mL) was administered via the urethra, and after 30 minutes, the inside of the bladder was washed via the urethra with saline five times. Thereafter, the mouse was subjected to laparotomy under anesthesia by subcutaneous administration of ketamine (75 mg/kg) and medetomidine (1 mg/kg), and near-infrared fluorescence observation was performed with a near-infrared fluorescence imaging device (pde-neo, manufactured by Hamamatsu Photonics K.K.) (FIG. 3, right: near-infrared fluorescence image).
As a comparative example, a saline containing the compound III was administered to the bladder of a normal mouse (weight: about 20 g) via the urethra, and after 30 minutes, the inside of the bladder was washed via the urethra with saline five times. Thereafter, the mouse was subjected to laparotomy under anesthesia by subcutaneous administration of ketamine (75 mg/kg) and medetomidine (1 mg/kg), and near-infrared fluorescence observation was performed with a near-infrared fluorescence imaging device (pde-neo, manufactured by Hamamatsu Photonics K.K.) (FIG. 4). […]

[2] = tested on: mouse tumor cell 4T1; assay: near-infrared fluorescence imaging after administration into tumor, 4T1 breast cancer model; format: in vivo
Excerpt: (§1) A syngeneic tumor transplanted mouse model was created as follows referring to “Gan-Shikkan Model no Sakusei to Riyo (Cancer-Creation and Use of Disease Model)” (Takuro Nakamura, LIC, 2012). • (Breast Cancer) A tumor model was created by breeding a normal Balb/c mouse (weight: about 20 g to 30 g) for 14 days with mouse tumor cell 4T1 subcutaneously administered thereto. • (Colorectal Cancer) A tumor model was created by breeding a normal Balb/c mouse (weight: about 20 g to 30 g) for 14 days with CT26 (colorectal cancer cell) subcutaneously administered thereto. • (Skin Cancer) A tumor model was created by breeding a C57BL/6 mouse (weight: about 15 g to 20 g) for 14 days with B16F1 (skin cancer cell) subcutaneously administered thereto.
(§2) Subsequently, to the tumor of each of the model mice, 0.02 to 0.05 mL of a saline containing the compound III or ICG (concentration of the compound III or ICG: 1 mg/mL) was administered, and fluorescence imaging was performed transdermally with a near-infrared fluorescence camera (Fluobeam, manufactured by Fluoptics, http://www.solve-net.com/info/wp-content/uploads/downloads/2013/12/Fluobeam.pdf) (excitation wavelength: 780 nm, detection wavelength: 800 nm or more).

[3] = tested on: CT26 (colorectal cancer cell); assay: near-infrared fluorescence imaging after administration into tumor, CT26 colorectal cancer model; format: in vivo, mouse; conditions: 0.02 to 0.05 mL of 1 mg/mL saline, transdermal imaging
Excerpt: as §1, §2

[4] = tested on: B16F1 (skin cancer cell); assay: near-infrared fluorescence imaging after administration into tumor, B16F1 skin cancer model; format: in vivo, mouse; conditions: 0.02 to 0.05 mL of 1 mg/mL saline, transdermal imaging
Excerpt: as §1, §2

[5] = tested on: RenCa cell; assay: near-infrared fluorescence imaging of lung, lung cancer-bearing mouse (RenCa, tail vein inoculation); format: in vivo; conditions: tail vein 120 nmol/kg; after 10 minutes; excised lung
Procedure: Metastatic spontaneous renal cell carcinoma line from BALB/c mouse, RenCa cell (1×10^6 cells, purchased from CLS Cell Lines Service GmbH, Eppelheim, Germany) was prepared in RPMI-1640 medium (fetal bovine serum free, FUJIFILM Wako Pure Chemical Corporation), the resultant was inoculated in a mouse (BALB/cCrSlc, SPF, female, 7 weeks old) by tail vein administration under anesthesia by subcutaneous administration of ketamine (75 mg/kg) and medetomidine (1 mg/kg), and the resultant mouse was bred for 18 days to cause lung cancer therein. The mouse was anesthetized by subcutaneous administration of ketamine (75 mg/kg) and medetomidine (1 mg/kg), and the compound III (120 nmol/kg weight) was administered through the tail vein. After 10 minutes, the lung was excised to perform near-infrared fluorescence imaging with a near-infrared fluorescence imaging device (pde-neo, manufactured by Hamamatsu Photonics K.K.).

[6] = tested on: RenCa kidney cancer cell; assay: near-infrared fluorescence observation of kidney, kidney cancer mouse (RenCa in left kidney); format: in vivo; conditions: tail vein 12 nmol/kg, after 10 minutes
Procedure: Under anesthesia by subcutaneous administration of ketamine (75 mg/kg) and medetomidine (1 mg/kg), RenCa kidney cancer cell (5×10^6 cells, purchased from CLS Cell Lines Service GmbH, Eppelheim, Germany) was transplanted into the left kidney of a mouse (weight: about 20 g), and the resultant mouse was bred for 9 to 14 days to create a kidney cancer mouse. […] The fluorescence from a cancer tissue was weak, the fluorescence from a normal tissue was strong, and thus, the cancer tissue and the normal tissue could be distinguished from each other (FIG. 24).

`COC1=C(/C=C/C2=[N+](CCC(=O)NCCCO[C@H]3[C@H]4O[C@H]5[C@H](O)[C@@H](O)[C@@H](O[C@H]6[C@H](O)[C@@H](O)[C@@H](O[C@H]7[C@H](O)[C@@H](O)[C@@H](O[C@H]8[C@H](O)[C@@H](O)[C@@H](O[C@H]9[C@H](O)[C@@H](O)[C@@H](O[C@H]%10[C@H](O)[C@@H](O)[C@@H](O[C@@H]([C@@H]3O)[C@@H](CO)O4)O[C@@H]%10CO)O[C@@H]9CO)O[C@@H]8CO)O[C@@H]7CO)O[C@@H]6CO)O[C@@H]5CO)c3ccc4ccccc4c3C2(C)C)CCC/C1=C\C=C1\N(CCC(=O)NCCCO[C@H]2[C@H]3O[C@H]4[C@H](O)[C@@H](O)[C@@H](O[C@H]5[C@H](O)[C@@H](O)[C@@H](O[C@H]6[C@H](O)[C@@H](O)[C@@H](O[C@H]7[C@H](O)[C@@H](O)[C@@H](O[C@H]8[C@H](O)[C@@H](O)[C@@H](O[C@H]9[C@H](O)[C@@H](O)[C@@H](O[C@@H]([C@@H]2O)[C@@H](CO)O3)O[C@@H]9CO)O[C@@H]8CO)O[C@@H]7CO)O[C@@H]6CO)O[C@@H]5CO)O[C@@H]4CO)c2ccc3ccccc3c2C1(C)C.[Cl-]` [compound III, 3-(3-{[3-(cyclomaltoheptaose-21-O-yl)propyl]amino}-3-oxopropyl)-2-{(1E)-2-[(3E)-3-{(2E)-2-[3-(3-{[3-(cyclomaltoheptaose-21-O-yl)propyl]amino}-3-oxopropyl)-1,1-dimethyl-1,3-dihydro-2H-benzo[e]indol-2-ylidene]ethylidene}-2-methoxycyclohexa-1-en-1-yl]ethene-1-yl}-1,1-dimethyl-1H-benzo[e]indol-3-ium chloride] was tested, and the “near-infrared fluorescence in cancer tissue of the bladder” value ([1]; MB49 bladder cancer mouse model, 0.2 mL 0.075 mg/mL) was “specifically observed”, the “near-infrared fluorescence of normal tissue (bladder)” value ([1]; normal mouse) was “did not emit near-infrared fluorescence” and the “retention in tumor (fluorescence imaging)” value (“retention in tumor” for short) ([2]; 4T1 breast cancer model, 0.02 to 0.05 mL of 1 mg/mL saline, transdermal imaging) was “retained in the tumor”. For the same compound, the “drawing of tumor outline / exudation to surrounding tissues” value ([2]; 4T1 tumor, 1 mg/mL saline, fluorescence imaging, incl. during tumor excision operation) was “did not exude to surrounding tissues but the outline of the tumor was drawn”, the “retention in tumor” value [3] was “retained in the tumor” and the “retention in tumor” value [4] was “retained in the tumor”. The “intensity of near-infrared fluorescence in lung cancer site” value [5] was “low”, the “fluorescence from kidney cancer tissue” value [6] was “weak” and the “fluorescence from normal kidney tissue” value [6] was “strong”.
